Experimental data reported in PubChem BioAssay AID434951 (Broad Institute, 2010).
Calls of active or inactive are those of the source.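 Rule for the calls: active = a fitted half-maximal concentration EC50 for the rise in nuclear signal no higher than ten times the top dose tested; inconclusive = flat fit with activity between 30% and 70%, or unusable fit; inactive = EC50 beyond ten times the top dose.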

What follows are molecules tested against Hypoxia-inducible factor 1-alpha (Homo sapiens) (UniProt Q16665) (assay: activators of HIF1alpha nuclear accumulation, confirmation, imaging, fluorescence, U2OS GFP-HIF1alpha (AID 434951)). Details: U2OS GFP-HIF1alpha nuclear intensity, high-content imaging.
Chain of Hypoxia-inducible factor 1-alpha (Homo sapiens) (Q16665 whole entry, looked up): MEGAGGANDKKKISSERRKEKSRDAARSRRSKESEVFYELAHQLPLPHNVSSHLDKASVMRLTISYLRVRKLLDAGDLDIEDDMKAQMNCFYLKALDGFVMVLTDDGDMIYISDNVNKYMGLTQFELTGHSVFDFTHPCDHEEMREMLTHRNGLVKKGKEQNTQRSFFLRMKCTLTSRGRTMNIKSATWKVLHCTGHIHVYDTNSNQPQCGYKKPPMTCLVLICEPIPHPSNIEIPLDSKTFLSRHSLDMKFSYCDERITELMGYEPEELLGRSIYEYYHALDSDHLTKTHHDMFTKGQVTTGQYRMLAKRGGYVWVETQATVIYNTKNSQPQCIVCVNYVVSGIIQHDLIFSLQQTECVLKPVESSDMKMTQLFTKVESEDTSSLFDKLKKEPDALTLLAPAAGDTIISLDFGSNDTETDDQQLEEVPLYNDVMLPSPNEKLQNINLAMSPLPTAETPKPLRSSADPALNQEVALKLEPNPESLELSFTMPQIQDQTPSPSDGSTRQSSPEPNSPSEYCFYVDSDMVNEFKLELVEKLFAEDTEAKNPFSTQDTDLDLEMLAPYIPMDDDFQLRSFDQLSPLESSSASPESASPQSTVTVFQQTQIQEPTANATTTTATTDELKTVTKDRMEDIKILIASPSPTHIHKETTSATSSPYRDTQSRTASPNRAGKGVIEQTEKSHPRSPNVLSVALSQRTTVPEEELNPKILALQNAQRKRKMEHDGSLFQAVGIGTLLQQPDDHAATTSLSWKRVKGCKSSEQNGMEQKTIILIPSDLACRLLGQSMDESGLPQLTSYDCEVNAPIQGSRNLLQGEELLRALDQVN
For COc1ccc(NC(=O)CCS(=O)(=O)c2ccc3c(c2)CCN3C(C)=O)cc1, the EC50 was > 35 µM (inactive).
In the case of CCn1c(SCC(=O)c2cc(C)ccc2C)nc2cc(S(=O)(=O)N3CCOCC3)ccc21, the EC50 is reported as > 35 µM (inactive).
In the case of CC(C)Cc1nnc(NC(=O)CCC(=O)N2CCC3(CC2)OCCO3)s1, the EC50 is reported as > 35 µM (inactive).
For O=C(N/N=C/c1ccc(O)c(O)c1O)/C(=C/c1ccc([N+](=O)[O-])cc1)NC(=O)c1ccccc1, the EC50 was > 35 µM (inactive).
With CCCCC(=O)Nc1ccc(NC(=O)CC)cc1OC the EC50 was > 35 µM (inactive).
With COc1cc(/C=C/C(=O)c2ccc3c(c2)OCCO3)cc(Br)c1OCC(=O)N(C)C the EC50 was > 35 µM (inactive).
For CN(c1cccc(Cl)c1)S(=O)(=O)c1cccc(C(=O)Nc2nc3ccccc3[nH]2)c1, the EC50 was > 35 µM (inactive).
In the case of CCc1ccc(OCC(=O)Nc2ccncc2)c(Br)c1, the EC50 is reported as > 35 µM (inactive).
For CC(Sc1nnc(COc2ccc([N+](=O)[O-])cc2)n1C)C(=O)O (stereo not drawn), the EC50 was > 35 µM (inactive).
For O=C(Nc1cccc(Cl)c1)Nc1cccc(C(=O)O)c1, the EC50 was > 35 µM (inactive).
For CC(=O)N1CCC(=NNc2nc3ccccc3[nH]2)CC1, the EC50 was > 35 µM (inactive).
With O=C1CCCc2ccccc2N1Cc1ccc(F)cc1 the EC50 was > 35 µM (inactive).
In the case of CCOC(=O)/C(N=Nc1ccc(F)cc1)=C(/O)c1ccc([N+](=O)[O-])cc1, the EC50 is reported as > 35 µM (inactive).
For CCOc1ccc(N2C(=O)CC(Sc3nc(C)cc(C)n3)C2=O)cc1 (stereo not drawn), the EC50 was > 35 µM (inactive).
Work on CCOC(=O)c1c(NC(=O)CN2C(=O)NC3(CCC(C)CC3)C2=O)sc(C)c1-c1ccc(C)cc1 (stereo not drawn) yielded an EC50 of 7.59 µM.
O=C(c1ccc(-c2nnc(-c3ccccc3)o2)cc1)N1CCCCCC1 was tested, and the EC50 was > 35 µM (inactive).
For CN(C)c1ccc(N=Nc2ccc(S(N)(=O)=O)cc2)cc1, the EC50 was > 35 µM (inactive).
CC(=O)Nc1nc2ccccc2n1CCOc1ccccc1Cl was tested, and the EC50 was > 35 µM (inactive).
In the case of COc1ccccc1NC(c1cccnc1)c1ccc2cccnc2c1O (stereo not drawn), the EC50 is reported as 25.9 µM.
With Cc1cc(Br)cc(/C=N/NC(=O)c2ccc3c(c2)OCO3)c1O the EC50 was 6.26 µM.
With S=c1[nH]nc(-c2ccco2)n1/N=C/c1cccs1 the EC50 was > 35 µM (inactive).
CCN(CCN(C)C)C(=O)C1CCN(S(=O)(=O)c2c(C)noc2/C=C/c2ccccc2F)CC1 showed an EC50 of 10.4 µM.
Work on O=C(Nc1ncccc1O)c1ccc(S(=O)(=O)Nc2ccccc2)cc1 yielded an EC50 of 9.18 µM.
Cc1nnc(SCc2cccc(Cl)c2)n(N)c1=O was tested, and the EC50 was > 35 µM (inactive).
Cc1ccc(C)c(-c2cc(C(=O)Nc3cccc(C(=O)O)c3)c3ccccc3n2)c1 was tested, and the EC50 was > 35 µM (inactive).
O=C(NC1CCCC1)c1cc(-c2ccccc2)on1 gave an EC50 of 16.3 µM.
O=C(CSc1ncn[nH]1)NCCc1ccc(Cl)cc1Cl was tested, and the EC50 was > 35 µM (inactive).
O=C(N/N=C/c1sc2ccccc2c1O)c1cccc2ccccc12 was tested, and the EC50 was 31.4 µM.
For COC(=O)C1=Nc2ccccc2/C1=C\c1c(O)n(-c2cc(OC)ccc2OC)c(=O)[nH]c1=O, the EC50 was > 35 µM (inactive).
Molecule COc1cccc(/C=N/Nc2nc3ccccc3[nH]2)c1O has an EC50 of 13.1 µM.
CCCc1[nH]nc2c1C(c1ccoc1)C(C#N)=C(N)O2 (stereo not drawn) was tested, and the EC50 was > 35 µM (inactive).
COc1ccc(NC(=O)C(=O)NNC(=O)c2ccc(Cl)cc2Cl)cc1 was tested, and the EC50 was > 35 µM (inactive).
In the case of CCOC(=O)c1sc(Nc2cccc(Cl)c2)nc1C, the EC50 is reported as > 35 µM (inactive).
For COc1ccc(NC(=O)CSc2ncnc3[nH]ncc23)cc1, the EC50 was > 35 µM (inactive).
O=C(NCCc1ccccc1)C1CCN(S(=O)(=O)c2ccc(-n3cnnn3)cc2)CC1 was tested, and the EC50 was > 35 µM (inactive).
For COc1ccc(NC(=O)CNC(=O)Cc2cccc3ccccc23)c(OC)c1, the EC50 was > 35 µM (inactive).
Molecule Oc1c(C(Nc2ccccn2)c2ccccn2)ccc2cccnc12 (stereo not drawn) has an EC50 of 3.98 µM.
In the case of CCCCCCCCCS(=O)(=O)N/N=C/c1cccc([N+](=O)[O-])c1, the EC50 is reported as > 35 µM (inactive).
CCCCn1c(N)c(N(CC)C(=O)c2cc(OC)cc(OC)c2)c(=O)[nH]c1=O was tested, and the EC50 was > 35 µM (inactive).
Work on Cc1cc(NC(=O)C2CC(=O)N(c3cccc(C)c3C)C2)no1 (stereo not drawn) yielded an EC50 of 33.3 µM.
Oc1ccccc1C(Nc1nccs1)c1ccc2cccnc2c1O (stereo not drawn) was tested, and the EC50 was 6.57 µM.
With COc1ccc(/C=N/Nc2ncnc3sc4c(c23)CCCC4)cc1OC the EC50 was > 35 µM (inactive).
In the case of Cc1ccc(C2(C)NC(=O)N(CC(=O)NC(=O)NC(C)(C)C)C2=O)cc1 (stereo not drawn), the EC50 is reported as > 35 µM (inactive).
In the case of Oc1c(CN2CCN(c3ccccc3)CC2)cc(Br)c2cccnc12, the EC50 is reported as 5.65 µM.
In the case of CN(Cc1cccc(C(F)(F)F)c1)C(=O)C1CCC(=O)N(CC2CCCCC2)C1 (stereo not drawn), the EC50 is reported as > 35 µM (inactive).
Cc1ccsc1C(=O)N/N=C/c1ccc([N+](=O)[O-])cc1 was tested, and the EC50 was > 35 µM (inactive).
For COc1ccc(CC(NC(C)=O)C(=O)NC2CCN(C(=O)c3cccc(Cl)c3)CC2)cc1OC (stereo not drawn), the EC50 was > 35 µM (inactive).
With C=CCOc1ccc(/C=C2\SC(N)=NC2=O)cc1OC the EC50 was > 35 µM (inactive).
For COc1cc(NC(=O)CN2C(=O)c3ccccc3Sc3ccc(C(=O)N4CCOCC4)cc32)cc(OC)c1OC, the EC50 was > 35 µM (inactive).
In the case of Cc1cc(-c2nnnn2-c2cc(Cl)cc(Cl)c2)no1, the EC50 is reported as > 35 µM (inactive).
COc1cc2ncnc(NCc3cccs3)c2cc1OC was tested, and the EC50 was > 35 µM (inactive).
For COc1ccccc1-c1cc(C(F)(F)F)nc(S(=O)(=O)CCCC(=O)N2CCOCC2)n1, the EC50 was > 35 µM (inactive).
In the case of Cc1onc(-c2c(Cl)cccc2Cl)c1C(=O)N=C(N)N1CCCC1, the EC50 is reported as > 35 µM (inactive).
Cc1occc1C(=O)NC1CCCCCC1 was tested, and the EC50 was > 35 µM (inactive).
In the case of CCOC(=O)c1c(S(=O)(=O)N2CCC(C)CC2)c(C)n(C)c1C, the EC50 is reported as > 35 µM (inactive).
With O=C1N/C(=C/c2cccs2)C(=O)N1Cc1ccc(Br)cc1 the EC50 was > 35 µM (inactive).
With CC/C(=N\N1CCCCCC1)c1c(O)n(-c2ccc(C)cc2)c(=O)[nH]c1=O the EC50 was > 35 µM (inactive).
With COc1ccccc1C(=O)Nc1ccccc1SC(=O)c1ccccc1OC the EC50 was > 35 µM (inactive).
O=C(NC(=S)Nc1ccccn1)c1cccc([N+](=O)[O-])c1 was tested, and the EC50 was > 35 µM (inactive).
In the case of O=C(N/N=C/c1ccc(O)cc1O)c1ccc(CN2C(=O)c3cccc4cccc2c34)cc1, the EC50 is reported as 19.6 µM.
For CCCOC(=O)NC1C(NC(=O)OCCC)N(C)C(=O)N1C (stereo not drawn), the EC50 was > 35 µM (inactive).
In the case of CCOC(=O)C1=C(c2ccccc2)NC(=O)NC1c1ccc(O)c(Cl)c1 (stereo not drawn), the EC50 is reported as 12.7 µM.
C/C(=N\NC(=O)c1nnn(-c2nonc2N)c1-c1ccccc1)c1ccccc1O showed an EC50 of 11.1 µM.
With O=C(CSc1ccc(-c2ccccn2)nn1)Nc1nccs1 the EC50 was 10.6 µM.
Cc1ccc(S(=O)(=O)Nc2cc(-c3ccc(Cl)cc3)nn2C)cc1 was tested, and the EC50 was > 35 µM (inactive).
O=C(N/N=C\c1cc(Cl)ccc1O)c1ccc(S(=O)(=O)N2CCCCC2)cc1 was tested, and the EC50 was 5.75 µM.
For C1CC1Cc1noc(CN2CCN(CC3CC3)CC2)n1, the EC50 was > 35 µM (inactive).
CC(=O)N1CCC(=NNC(=O)c2cc3ccccc3cc2O)CC1 was tested, and the EC50 was > 35 µM (inactive).
In the case of O=C(CN1CCCCC1)N1CCCc2ccccc21, the EC50 is reported as > 35 µM (inactive).
In the case of Cn1ncc(Cl)c1C(=O)Nc1nc2ccc(Cl)cc2s1, the EC50 is reported as > 35 µM (inactive).
With Oc1c(CN2CCc3ccccc3C2)cc(Cl)c2cccnc12 the EC50 was 7.26 µM.
With COc1ccc(NC(=S)N2CCN(C(=O)c3ccccc3)CC2)cc1 the EC50 was > 35 µM (inactive).
For CC(=O)OCCCNc1cc(Sc2ccc(C)cc2)c2nonc2c1[N+](=O)[O-], the EC50 was > 35 µM (inactive).
O=S(=O)(/C=C/c1ccccc1)N1CCNCC1 was tested, and the EC50 was > 35 µM (inactive).
In the case of c1ccc(N=Nc2ccc3cccccc2-3)cc1, the EC50 is reported as 33.1 µM.
With Oc1[nH]c2ccc(Br)cc2c1N=NC(=S)N1CCOCC1 the EC50 was 6.79 µM.
COc1cccc2sc(N3CCN(C(=O)c4ccc([N+](=O)[O-])o4)CC3)nc12 was tested, and the EC50 was > 35 µM (inactive).
For O=Cc1cc(N=Nc2ccccc2Cl)ccc1O, the EC50 was > 35 µM (inactive).
C=CCc1c(C)nc2c(-c3ccccc3)cnn2c1N1CCOCC1 was tested, and the EC50 was > 35 µM (inactive).
For CCC(C)c1ccc2oc(-c3ccc(NC(=O)Cn4cnc5c(=O)n(C)c(=O)n(C)c54)cc3)nc2c1 (stereo not drawn), the EC50 was 6.07 µM.
In the case of NS(=O)(=O)c1ccc(CNC(=O)c2csc3c2CCCC3)cc1, the EC50 is reported as > 35 µM (inactive).
With CCN(CC)S(=O)(=O)c1ccc(N2CCOCC2)c(NC(=O)c2cccc3ccccc23)c1 the EC50 was > 35 µM (inactive).
For Cc1ccc2nc(SCC(=O)Nc3ccc(Br)cc3)nc(=O)n2c1, the EC50 was > 35 µM (inactive).
With CN(C)CCCN(C(=O)CCS(=O)(=O)c1ccccc1)c1nc2cc3c(cc2s1)OCO3 the EC50 was > 35 µM (inactive).
With O=C1CN(c2ccccc2)C(=O)N1 the EC50 was > 35 µM (inactive).
For CCn1ncc(C2=NOC(C(=O)Nc3ccc4c(c3)OCO4)C2)c1C (stereo not drawn), the EC50 was > 35 µM (inactive).
COc1cccc(/C=N/NC(=O)c2ccc(-c3ccccc3)cc2)c1O showed an EC50 of 30.5 µM.
COc1cc2c(cc1OC)C(c1ccccc1)N(S(C)(=O)=O)CC2 (stereo not drawn) was tested, and the EC50 was > 35 µM (inactive).
With C(/CCc1ccccc1)=N\Nc1nc2ccccc2[nH]1 the EC50 was 35.9 µM.
COc1ccc(-n2c(C)cc(C(=O)CCl)c2C)cc1 was tested, and the EC50 was 12.4 µM.
In the case of Oc1ccc(CN2CCN(Cc3ccccc3)CC2)c2cccnc12, the EC50 is reported as > 35 µM (inactive).
For Cc1ccc2nc(N3CCN(C)CC3)[nH]c2c1, the EC50 was > 35 µM (inactive).
Nc1nc2nc(-c3cccs3)cc(C(F)(F)F)n2n1 was tested, and the EC50 was > 35 µM (inactive).
For COc1ccc2c(c1)c(C(=O)CN1CCc3ccccc3C1)c(C)n2C, the EC50 was > 35 µM (inactive).
Cc1nc(-n2[nH]c3c(c2=O)CCCC3)[nH]c(=O)c1Cc1ccccc1 showed an EC50 of 9.42 µM.
COc1ccc(O)c(/C=N/NC(=S)Nc2cccc(S(=O)(=O)N(C)C)c2)c1 was tested, and the EC50 was > 35 µM (inactive).
CC(C)=CCSc1nnc([C@@H](N)Cc2c[nH]c3ccccc23)o1 was tested, and the EC50 was > 35 µM (inactive).
O=C(N/N=C/c1c(O)ccc2ccccc12)c1cccnc1 was tested, and the EC50 was 0.678 µM.
For CCOC(=O)c1sc(N(Cc2ccccc2)C(=O)COC(=O)c2ccc(O)cc2)nc1C, the EC50 was 12.2 µM.
CS(=O)(=O)c1cccc(C(=O)N(CCc2ccccc2)Cc2cccs2)c1 was tested, and the EC50 was > 35 µM (inactive).
For CCCCCCC1CCC(c2nc(-c3ccncc3)no2)CC1 (stereo not drawn), the EC50 was > 35 µM (inactive).
With Cc1cc(C)c2sc(NNC(=O)c3ccc(S(=O)(=O)N4CCc5ccccc5C4)cc3)nc2c1 the EC50 was 10.5 µM.
With COc1ccc2oc(=O)c(C(=O)NC3CCCCCC3)cc2c1 the EC50 was > 35 µM (inactive).
